In patent US7855205B2, “Pyrimidinyl substituted fused-pyrrolyl compounds useful in treating kinase disorders” (Janssen Pharmaceutica NV, priority 2004, dated 2010):

How the values were obtained:
Aurora-A = target: T1, Aurora-A (Mus musculus, UniProt P97477); assay: Aurora-A Screening Assay; assay type: biochemical, murine; details: 33P-γ-ATP incorporation, 10 μM ATP
T1 construct: made in house; host or cells: sf9 insect cells
T1 sequence (P97477 1-395): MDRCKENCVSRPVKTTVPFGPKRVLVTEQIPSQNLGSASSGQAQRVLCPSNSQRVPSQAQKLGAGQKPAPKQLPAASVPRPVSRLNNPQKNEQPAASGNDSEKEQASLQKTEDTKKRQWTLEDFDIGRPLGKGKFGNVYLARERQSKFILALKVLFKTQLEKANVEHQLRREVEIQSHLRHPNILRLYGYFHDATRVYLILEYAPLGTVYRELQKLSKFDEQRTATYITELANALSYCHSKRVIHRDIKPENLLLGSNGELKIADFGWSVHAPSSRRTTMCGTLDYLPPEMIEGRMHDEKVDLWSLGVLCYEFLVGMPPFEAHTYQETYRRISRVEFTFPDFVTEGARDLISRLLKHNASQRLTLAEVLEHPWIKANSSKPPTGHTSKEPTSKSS

VEGF-R2 = target: T2, VEGF-R2 (Rattus norvegicus, UniProt O08775); assay: VEGF-R2 Screening Assay; assay type: biochemical; details: 33P-γ-ATP incorporation, 10 μM ATP
T2 construct: polyhistidine (N)
How it was run: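 The N-terminally His-tagged rat VEGF-R2 kinase domain (aa 786-1343), diluted in 50 mM Tris-HCl pH 8.0 with 0.1% BSA, phosphorylated a biotinylated histone-H1 peptide with 33P-γ-ATP on Flashplates for 1 h at 30 °C in 1% DMSO. After washes with EDTA/PBS, immobilized 33P was counted by scintillation.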

HCT-116 colon carcinoma = assay: Inhibition of cell proliferation (14C-thymidine incorporation), HCT-116; assay type: cell-based; details: Homo sapiens, HCT-116, HCT116
How it was run: (§1)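 Cells (3000-8000/well) grown 24 h at 37° C, 5% CO2, then given compound in DMSO for 24 h before adding methyl 14C-thymidine (0.2 uCi/well) for a further 24 h with drug. After PBS washes, incorporation into DNA counted by scintillation.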

[1] = test system: HeLa cervical adenocarcinoma; assay: Inhibition of cell proliferation (14C-thymidine incorporation), HeLa; assay type: cell-based; details: Homo sapiens;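 further: HeLa cells in 96-well scintillating plates, compound for 24 h then 24 h more with 14C-thymidine, counting label built into new DNA against DMSO-only control wells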
CDK1:Cyclin-B = target: T3, CDK1:Cyclin-B (Homo sapiens, UniProt P06493); assay: CDK1 Screening Assay; assay type: biochemical; details: 33P-γ-ATP incorporation, 10 μM ATP
T3 construct: purchased New England Biolabs, Beverly, Mass; 6020; host or cells: insect cells
How it was run: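 Human CDK1/cyclin B co-expressed in insect cells (30 ng/well) in 50 mM Tris pH 8, 10 mM MgCl2, with 10 μM ATP, 33P-γ-ATP and 0.025 μM biotinylated histone H1 peptide (reaction-mix levels); 1% DMSO final. 1 h at 30° C. 33P incorporation into streptavidin-captured peptide by scintillation counting.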

A375 malignant melanoma = assay: Inhibition of cell proliferation (14C-thymidine incorporation), A375; assay type: cell-based, human; details: Homo sapiens, A-375
How it was run: as §1

RET = target: T4, RET (Homo sapiens, UniProt P07949); assay: RET Kinase Screening Assay; assay type: biochemical; details: 33P-γ-ATP incorporation, 10 μM ATP
T4 construct: the RET cytoplasmic domain consisting of the last 492 amino acids of the intracellular domain of the RET tyrosine kinase; histidine tag (N); made in house; host or cells: Hi5 insect cells
T4 sequence (P07949 658-1114 limits assumed): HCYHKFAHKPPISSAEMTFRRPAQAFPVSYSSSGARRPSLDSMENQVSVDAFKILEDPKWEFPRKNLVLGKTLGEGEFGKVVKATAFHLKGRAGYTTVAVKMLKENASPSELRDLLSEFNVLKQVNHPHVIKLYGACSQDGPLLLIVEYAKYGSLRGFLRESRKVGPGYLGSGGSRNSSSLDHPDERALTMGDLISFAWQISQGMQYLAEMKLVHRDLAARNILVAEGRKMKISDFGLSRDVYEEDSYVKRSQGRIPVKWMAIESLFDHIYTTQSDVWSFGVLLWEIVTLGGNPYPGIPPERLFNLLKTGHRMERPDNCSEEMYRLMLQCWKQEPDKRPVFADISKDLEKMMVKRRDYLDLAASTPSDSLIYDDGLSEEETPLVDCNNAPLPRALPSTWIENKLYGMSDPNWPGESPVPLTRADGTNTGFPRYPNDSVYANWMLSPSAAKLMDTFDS

T3 sequence (P06493 whole entry): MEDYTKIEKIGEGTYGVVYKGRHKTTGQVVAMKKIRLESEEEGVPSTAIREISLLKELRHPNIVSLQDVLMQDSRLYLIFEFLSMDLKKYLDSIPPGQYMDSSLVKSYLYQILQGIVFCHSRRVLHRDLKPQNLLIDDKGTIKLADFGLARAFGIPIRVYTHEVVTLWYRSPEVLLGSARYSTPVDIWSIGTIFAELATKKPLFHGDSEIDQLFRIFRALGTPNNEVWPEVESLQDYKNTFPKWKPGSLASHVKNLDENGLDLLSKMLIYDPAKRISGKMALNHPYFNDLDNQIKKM
T3 sequence (P14635 whole entry partner): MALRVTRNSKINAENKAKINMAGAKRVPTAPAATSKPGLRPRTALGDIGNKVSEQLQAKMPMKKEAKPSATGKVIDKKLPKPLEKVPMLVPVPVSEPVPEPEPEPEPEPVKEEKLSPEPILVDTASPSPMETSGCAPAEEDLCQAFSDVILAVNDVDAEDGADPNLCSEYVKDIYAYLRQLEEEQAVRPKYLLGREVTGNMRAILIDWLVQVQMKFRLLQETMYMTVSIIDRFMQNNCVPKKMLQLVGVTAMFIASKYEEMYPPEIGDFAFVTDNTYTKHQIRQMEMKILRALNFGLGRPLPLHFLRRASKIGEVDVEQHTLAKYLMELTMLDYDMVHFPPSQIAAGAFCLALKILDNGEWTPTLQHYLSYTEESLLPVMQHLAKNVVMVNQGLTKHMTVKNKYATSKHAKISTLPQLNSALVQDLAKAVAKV
T2 sequence (O08775 786-1343): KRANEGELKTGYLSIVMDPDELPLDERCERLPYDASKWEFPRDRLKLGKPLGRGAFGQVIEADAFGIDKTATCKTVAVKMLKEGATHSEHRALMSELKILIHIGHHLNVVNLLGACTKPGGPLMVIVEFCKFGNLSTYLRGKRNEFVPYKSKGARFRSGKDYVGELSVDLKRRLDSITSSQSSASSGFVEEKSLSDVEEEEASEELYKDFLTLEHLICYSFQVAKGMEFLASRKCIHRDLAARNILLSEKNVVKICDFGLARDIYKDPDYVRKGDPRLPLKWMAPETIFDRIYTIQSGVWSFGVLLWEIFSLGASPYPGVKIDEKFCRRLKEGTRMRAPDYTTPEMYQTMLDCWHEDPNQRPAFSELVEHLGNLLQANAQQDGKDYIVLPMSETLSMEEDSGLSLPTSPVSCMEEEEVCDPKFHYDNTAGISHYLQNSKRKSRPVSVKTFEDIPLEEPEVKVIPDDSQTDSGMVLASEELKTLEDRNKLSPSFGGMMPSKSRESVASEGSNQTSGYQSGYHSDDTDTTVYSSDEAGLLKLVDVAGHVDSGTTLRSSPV

## CNCCc1ccc(Nc2nccc(-c3c[nH]c4ncccc34)n2)c(C)c1 [Cpd 45]
Aurora-A
  IC50: 0.317 µM
VEGF-R2
  IC50: 0.583 µM
HCT-116 colon carcinoma
  IC50: 0.0022 µM
[1]
  IC50: 0.00337 µM
CDK1:Cyclin-B
  IC50: 0.00095 µM
A375 malignant melanoma
  IC50: 0.00167 µM
RET
  IC50: 1.54 µM

## CCN(CC)CCc1ccc(Nc2nccc(-c3c[nH]c4ncccc34)n2)c(C)c1 [Cpd 47]
Aurora-A
  IC50: 0.972 µM
VEGF-R2
  IC50: 0.882 µM
HCT-116 colon carcinoma
  IC50: 0.00292 µM
[1]
  IC50: 0.00302 µM
CDK1:Cyclin-B
  IC50: 0.0014 µM
A375 malignant melanoma
  IC50: 0.00288 µM
RET
  IC50: 1.4 µM

## Cc1cc(CCN2CCOCC2)ccc1Nc1nccc(-c2c[nH]c3ncccc23)n1 [Cpd 49, {4-[2-(Morpholin-4-yl)ethyl]-2-methylphenyl}-[4-(1H-pyrrolo[2,3-b]pyridin-3-yl)-pyrimidin-2-yl]-amine]
Aurora-A
  IC50: 0.333 µM
VEGF-R2
  IC50: 0.75 µM
HCT-116 colon carcinoma
  IC50: 0.00294 µM
[1]
  IC50: 0.00252 µM
CDK1:Cyclin-B
  IC50: 0.00196 µM
A375 malignant melanoma
  IC50: 0.00282 µM
RET
  IC50: 2.28 µM

## Cc1cc(CCN2CCCCC2)ccc1Nc1nccc(-c2c[nH]c3ncccc23)n1 [Cpd 50, {4-[2-(Piperidin-1-yl)ethyl]-2-methylphenyl}-[4-(1H-pyrrolo[2,3-b]pyridin-3-yl)-pyrimidin-2-yl]-amine]
Aurora-A
  IC50: 0.902 µM
VEGF-R2
  IC50: 0.959 µM
HCT-116 colon carcinoma
  IC50: 0.00283 µM
[1]
  IC50: 0.00268 µM
CDK1:Cyclin-B
  IC50: 0.0011 µM
A375 malignant melanoma
  IC50: 0.00284 µM
RET
  IC50: 3.07 µM

## OCCc1ccc(Nc2nccc(-c3c[nH]c4ncccc34)n2)c(Cl)c1 [Cpd 52]
Aurora-A
  IC50: 0.0757 µM
VEGF-R2
  IC50: 0.322 µM
HCT-116 colon carcinoma
  IC50: 0.121 µM
[1]
  IC50: 0.162 µM
CDK1:Cyclin-B
  IC50: 0.0087 µM
A375 malignant melanoma
  IC50: 0.134 µM
RET
  IC50: 0.54 µM

## CNCCc1ccc(Nc2nccc(-c3c[nH]c4ncccc34)n2)c(Cl)c1 [Cpd 53]
Aurora-A
  IC50: 0.408 µM
VEGF-R2
  IC50: 1.31 µM
HCT-116 colon carcinoma
  IC50: 0.127 µM
[1]
  IC50: 0.123 µM
CDK1:Cyclin-B
  IC50: 0.0441 µM
A375 malignant melanoma
  IC50: 0.0913 µM
RET
  IC50: 2.36 µM

## CN(C)CCc1ccc(Nc2nccc(-c3c[nH]c4ncccc34)n2)c(Cl)c1 [Cpd 54]
Aurora-A
  IC50: 0.908 µM
VEGF-R2
  IC50: 2.31 µM
HCT-116 colon carcinoma
  IC50: 0.269 µM
[1]
  IC50: 0.281 µM
CDK1:Cyclin-B
  IC50: 0.0612 µM
A375 malignant melanoma
  IC50: 0.215 µM
RET
  IC50: 4.06 µM

## CN1CCN(CCc2ccc(Nc3nccc(-c4c[nH]c5ncccc45)n3)c(Cl)c2)CC1 [Cpd 55, {2-Chloro-4-[2-(4-methylpiperizin-1-yl)ethyl]phenyl}-[4-(1H-pyrrolo[2,3-b]pyridin-3-yl)-pyrimidin-2-yl]-amine]
Aurora-A
  IC50: 0.785 µM
VEGF-R2
  IC50: 0.342 µM
HCT-116 colon carcinoma
  IC50: 0.264 µM
[1]
  IC50: 0.292 µM
CDK1:Cyclin-B
  IC50: 0.0408 µM
A375 malignant melanoma
  IC50: 0.233 µM
RET
  IC50: 1.15 µM

## Clc1cc(CCN2CCOCC2)ccc1Nc1nccc(-c2c[nH]c3ncccc23)n1 [Cpd 56, {2-Chloro-4-[2-(morpholin-4-yl)ethyl]phenyl}-[4-(1H-pyrrolo[2,3-b]pyridin-3-yl)-pyrimidin-2-yl]-amine]
Aurora-A
  IC50: 0.859 µM
VEGF-R2
  IC50: 1.04 µM
HCT-116 colon carcinoma
  IC50: 0.774 µM
[1]
  IC50: 1.1 µM
CDK1:Cyclin-B
  IC50: 0.105 µM
A375 malignant melanoma
  IC50: 0.727 µM
RET
  IC50: 1.24 µM

## c1cnc2[nH]cc(-c3ccnc(NC4CCNCC4)n3)c2c1 [Cpd 65, Piperidin-4-yl-[4-(1H-pyrrolo[2,3-b]pyridin-3-yl)pyrimidin-2-yl]-amine]
Aurora-A
  IC50: 1.3 µM
VEGF-R2
  IC50: 1.07 µM
HCT-116 colon carcinoma
  IC50: 0.015 µM
[1]
  IC50: 0.0269 µM
CDK1:Cyclin-B
  IC50: 0.0603 µM
A375 malignant melanoma
  IC50: 0.0218 µM
RET
  IC50: 1.23 µM

## Cc1cc(O)ccc1Nc1nccc(-c2c[nH]c3ncccc23)n1 [Cpd 79, 3-Methyl-4-[4-(1H-pyrrolo[2,3-b]pyridin-3-yl)-pyrimidin-2-ylamino]-phenol]
Aurora-A
  IC50: 0.119 µM
VEGF-R2
  IC50: 0.927 µM
HCT-116 colon carcinoma
  IC50: 0.00492 µM
[1]
  IC50: 0.0059 µM
CDK1:Cyclin-B
  IC50: 0.000764 µM
A375 malignant melanoma
  IC50: 0.00858 µM
RET
  IC50: 4.82 µM
